Where “and” joins values, the source holds several entries; their conditions need not be identical. Equal values may be shown once. Entries after “also recorded” stand apart in the source; their conditions may differ.
System: women with diabetes mellitus type II
Assay: Clinical tests of women with diabetes mellitus type II treated with ketoconazole
Assay type: in vivo, human
Details: for Serum-ASAT / Serum-ALAT / GIR (glucose infusion rate during euglycemic glucose clamp), indicating insulin sensitivity / Fasting serum total cholesterol / Diastolic blood pressure measured after 5 min. in supine position, 2 measurements averaged / Systolic blood pressure measured after 5 min. in supine position, 2 measurements averaged / Fasting blood glucose: after treatment
Procedure: We have investigated a group of people with diabetes mellitus type II.
Group 1 consists of 3 patients (mean age: 46 years) treated with ketoconazole for 2 weeks, administered orally 22:00 in the evening in the dose of 400 mg.
Group 2 consists of 5 patients (mean age: 51 years) treated with ketoconazole for 6 weeks, administered orally 22:00 in the evening in the dose of 400 mg. Results are expressed as mean values within groups.

[1] = diabetes mellitus type II patients, after vs before treatment

- Serum-ASAT (Group 1: 400 mg orally 22:00 for 2 weeks, group mean (before: 0.36)): 0.33 μkat/L
- Serum-ALAT (Group 1: 400 mg orally 22:00 for 2 weeks, group mean (before: 0.61)): 0.52 μkat/L
- Serum-ASAT (Group 2: 400 mg orally 22:00 for 6 weeks, group mean (before: 0.26)): 0.25 μkat/L
- Serum-ALAT (Group 2: 400 mg orally 22:00 for 6 weeks, group mean (before: 0.40)): 0.37 μkat/L
SMILES: CC(=O)N1CCN(c2ccc(OCC3COC(Cn4ccnc4)(c4ccc(Cl)cc4Cl)O3)cc2)CC1 (stereo not shown) [ketoconazole]
- GIR (glucose infusion rate during euglycemic glucose clamp), indicating insulin sensitivity (Group 1: 400 mg orally 22:00 for 2 weeks, group mean (before: 0.9)): 1.85 mg glucose per minute divided by lean body mass
- Fasting serum total cholesterol (Group 1: 400 mg orally 22:00 for 2 weeks, group mean (before: 5.80)): 5.67 mmol/L
- Diastolic blood pressure measured after 5 min. in supine position, 2 measurements averaged (Group 1: 400 mg orally 22:00 for 2 weeks, group mean (before: 70)): 70 mm Hg
- Systolic blood pressure measured after 5 min. in supine position, 2 measurements averaged (Group 1: 400 mg orally 22:00 for 2 weeks, group mean (before: 140)): 135 mm Hg
- Fasting blood glucose (Group 1: 3 patients, 400 mg orally 22:00 for 2 weeks, group mean (before: 10.20)): 8.77 mmol/L
- GIR (glucose infusion rate during euglycemic glucose clamp), indicating insulin sensitivity (Group 2: 400 mg orally 22:00 for 6 weeks, group mean (before: 2.97)): 4.32 mg glucose per minute divided by lean body mass
- Fasting serum total cholesterol (Group 2: 400 mg orally 22:00 for 6 weeks, group mean (before: 4.80)): 4.10 mmol/L
- Diastolic blood pressure measured after 5 min. in supine position, 2 measurements averaged (Group 2: 400 mg orally 22:00 for 6 weeks, group mean (before: 75)): 72 mm Hg
- Systolic blood pressure measured after 5 min. in supine position, 2 measurements averaged (Group 2: 400 mg orally 22:00 for 6 weeks, group mean (before: 125)): 123 mm Hg
- Fasting blood glucose (Group 2: 5 patients, 400 mg orally 22:00 for 6 weeks, group mean (before: 7.20)): 7.10 mmol/L
- Effect on blood pressure (in words) [1]: decreasing blood pressure values
- Effect on insulin sensitivity / insulin resistance (in words), euglycemic glucose clamp [1]: a reduction of the insulin insensitivity (resistance); also recorded: improved insulin sensitivity; also recorded: a remarkable improvement of insulin sensitivity
- Effect on plasma cholesterol levels (in words) [1]: Reduced cholesterol levels in the plasma
- Effect on blood glucose (in words) (diabetes mellitus type II patients, after vs before treatment for 2 and 6 weeks, fasting or 2 hours after i.v. glucose infusion): lower blood glucose after treatment compared to before treatment; also recorded: a decrease in blood glucose
- Blood glucose 2 hours after start of an i.v. glucose infusion (human, in vivo): 7.90 mmol/L and 5.76 mmol/L

— patent US7960410B2, “Method for treating insulin resistance, abdominal obesity, hypertension, hyperinsulinemia, and elevated blood lipids with a cortisol inhibitor” (Cortendo AB, priority 1994, dated 2011)
